Experimental data taken from patent US20160122821A1, “GENETIC MARKERS OF ANTIPSYCHOTIC RESPONSE” (SUREGENE, LLC, priority 2013, published 2016).

Tested on: Caucasian patients with schizophrenia (CATIE)
Experiment: Genetic association (linear regression, additive model) of SNP alleles with MMRM-modelled change in PANSS Total Score under antipsychotic treatment, CATIE trial
Format: in vivo, human
Description: For the CATIE study, individual cases were diagnosed as having SZ based on DSM-III/IV criteria. Treatment response for all patients was assessed using the Positive and Negative Syndrome Scale (PANSS) (Kay et al., 1987; Kay et al., 1989; Leucht et al., 2005). […] To avoid possible bias in post hoc selection of a treatment response variable, the inventors used the mixed model repeated measures (MMRM) approach developed by van den Oord and coworkers (van den Oord et al., 2009). […] The design of the CATIE study, including details of consent for genetic analyses, has been described in detail by others (Lieberman et al., 2005; Stroup et al., 2003; Sullivan et al., 2008). Only retrospective genetic analyses, judged to be exempt from human studies requirements by an IRB, were conducted in the current study. Consented DNA samples were obtained from the Rutgers University Cell and DNA Repository in collaboration with […]. […] All of these patients self-reported as having exclusively European ancestry. […] Genotyping was performed on a fee for service basis according to Illumina's standard operating procedures. Raw intensity files were processed using Illumina® BeadStudio version 1.7.4 software. […] Only two of these had been previously genotyped in the CATIE sample. […] To allow comparison to previously published PGx findings for CATIE and to avoid possible bias in post-hoc selection of a treatment response variable, the inventors used the mixed model repeated measures (MMRM) approach developed by Van den Oord and coworkers (van den Oord et al., 2009; […] et al., 2011). Briefly, this method models random effects by introducing random slopes for treatment effects, allowing treatment effects to be different across subjects. The MMRM approach serves to increase the statistical power to detect genetic associations by increasing the precision in measuring change in PANSS Total Score (PANSS-T) by accounting for variance due to baseline PANSS-T, and treatment, as well as smoothing out the random fluctuations in PANSS-T between visits due to various uncontrolled variables. […] Bozeman, Mont.). Quantile-Quantile (QQ) plots were prepared using the R statistical package version 2.14.1. For comparison purposes, original CATIE-provided SNP genotypes in specific genes were evaluated using the same genetic analysis. Haplotype association integrating newly generated and original genotypes for specific regions was carried out in SVS using haplotype blocks predefined by Haploview software. […] For each of the SNPs listed the reference SNP (rs) number is provided, which provides the known sequence context for the given SNP (see, e.g., National Center for Biotechnology Information (NCBI) SNP database available on the world wide web at ncbi.nlm.nih.gov/snp).

With `Cc1cc2c(s1)Nc1ccccc1N=C2N1CCN(C)CC1` [Olanzapine, olanzapine] the “Beta (PANSS)” value (KCND2 rs10953911 allele G) was −5.26 PANSS, the “Beta (PANSS)” value (KCND2 rs11765060 allele C) was −5.30 PANSS and the “Beta (PANSS)” value (KCNH1 rs4282878 allele C) was −3.08 PANSS. For the same molecule, the “Beta (PANSS)” value (KDM4C rs35389625 allele C) was −11.20 PANSS, the “Beta (PANSS)” value (KITLG rs995029 allele C) was −7.22 PANSS and the “Beta (PANSS)” value (LDB2 rs872478 allele C) was −3.53 PANSS. The “Beta (PANSS)” value (LRP1B rs4591293 allele A) was −3.04 PANSS, the “Beta (PANSS)” value (MACROD2 rs461651 allele A) was −3.59 PANSS and the “Beta (PANSS)” value (MACROD2 rs6079429 allele A) was −4.72 PANSS. The “Beta (PANSS)” value (MAGI2 rs848813 allele C) was −4.34 PANSS, the “Beta (PANSS)” value (MAGI2 rs12705833 allele G) was −2.87 PANSS and the “Beta (PANSS)” value (MCPH1 rs930557 allele C) was −3.78 PANSS. For the same molecule, the “Beta (PANSS)” value (MEPE rs3749575 allele A) was −8.95 PANSS, the “Beta (PANSS)” value (MTIF3 rs12585587 allele A) was −4.37 PANSS and the “Beta (PANSS)” value (NAB1 rs2293765 allele A) was −4.60 PANSS. For the same molecule, the “Beta (PANSS)” value (NELL1 rs4244549 allele C) was −4.96 PANSS, the “Beta (PANSS)” value (NRXN1 rs11885824 allele A) was −5.21 PANSS and the “Beta (PANSS)” value (NTRK2 rs1490403 allele A) was −3.10 PANSS. For the same molecule, the “Beta (PANSS)” value (NTRK2 rs1490407 allele G) was −3.00 PANSS, the “Beta (PANSS)” value (NTRK2 rs4142909 allele C) was −3.81 PANSS and the “Beta (PANSS)” value (NTSR2 rs7602721 allele C) was −4.08 PANSS. The “Beta (PANSS)” value (PARD3B rs17283257 allele A) was −3.82 PANSS, the “Beta (PANSS)” value (PCDH15 rs10825137 allele A) was −4.89 PANSS and the “Beta (PANSS)” value (PCDH17 rs7319102 allele A) was −3.47 PANSS. For the same molecule, the “Beta (PANSS)” value (PCP4L1 rs6671288 allele C) was −4.15 PANSS, the “Beta (PANSS)” value (PDGFD, DDI1 rs2279789 allele C) was −4.42 PANSS and the “Beta (PANSS)” value (PEBP4 rs13271643 allele C) was −5.41 PANSS. For the same molecule, the “Beta (PANSS)” value (PI4KA, SERPIND1 rs78656 allele C) was −7.22 PANSS, the “Beta (PANSS)” value (PKNOX2 rs1044314 allele G) was −4.14 PANSS and the “Beta (PANSS)” value (PKP4 rs11680160 allele A) was −4.33 PANSS. For the same molecule, the “Beta (PANSS)” value (PRDM2 rs6429793 allele A) was −3.13 PANSS, the “Beta (PANSS)” value (PSD3 rs7016207 allele C) was −6.20 PANSS and the “Beta (PANSS)” value (PTPRT rs6030084 allele A) was −2.96 PANSS. The “Beta (PANSS)” value (RASGEF1C rs2278661 allele C) was −3.04 PANSS, the “Beta (PANSS)” value (RBFOX1 rs7194775 allele C) was −4.37 PANSS and the “Beta (PANSS)” value (RIMS1 rs9446639 allele C) was −3.56 PANSS. The “Beta (PANSS)” value (RNF144A rs7605141 allele C) was −4.00 PANSS, the “Beta (PANSS)” value (ROBO2 rs4343667 allele C) was −4.96 PANSS and the “Beta (PANSS)” value (RORA rs12910376 allele C) was −3.38 PANSS. For the same molecule, the “Beta (PANSS)” value (SCN3A rs10048748 allele C) was −5.44 PANSS, the “Beta (PANSS)” value (SEC16B rs16852158 allele C) was −6.45 PANSS and the “Beta (PANSS)” value (SGCZ rs10503525 allele C) was −3.05 PANSS. The “Beta (PANSS)” value (SGCZ rs13278000 allele A) was −2.91 PANSS, the “Beta (PANSS)” value (SLC6A5 rs1443547 allele A) was −3.31 PANSS and the “Beta (PANSS)” value (SLC16A4 rs12126959 allele A) was −4.16 PANSS. The “Beta (PANSS)” value (SLC16A9 rs16913940 allele A) was −6.05 PANSS, the “Beta (PANSS)” value (SLC35F3 rs12759054 allele C) was −3.34 PANSS and the “Beta (PANSS)” value (SPOCK1 rs1051854 allele G) was −6.02 PANSS. For the same molecule, the “Beta (PANSS)” value (WDR90 rs1057835 allele A) was −3.10 PANSS and the “Beta (PANSS)” value (ZNF169 rs9409514 allele C) was −3.04 PANSS.
